{
  "source": "patent US20240400692A1",
  "about": "“CELIAC DISEASE EPITOPES” (NEXTERA AS, priority 2021, published 2024)",
  "key": {"[1]": {"target": "T1, chymotrypsin (Bos taurus, UniProt P00766)", "T1 construct": "purchased Sigma; host or cells: substrate gliadin: E. coli BL21 (DE3)pLysS, made by Genscript", "experiment": "In vitro chymotrypsin digest and mass spectrometry of recombinant gliadin", "settings": "chymotrypsin 200:1 (w:w), 37° C., 24h; MS; FIG. 9E", "source_text": "Assessment of in vitro chymotrypsin proteolysis of the A0A0E3SZN6_TRIUA protein. The T. aestivum Q9M4L6_WHEAT (A), T. urartu A0A0E3SZN6_TRIUA (B) and T. aestivum Q9FUW7_WHEAT (C) proteins where produced and affinity purified from E. coli, followed by in vitro chymotrypsin digest and mass spectrometry analysis of the resulting peptide segments (D, E and F). The anticipated 9-mer core regions of the relevant epitopes are indicated by enumeration (D, E and F). Panel A: SDS-PAGE and Western blot analysis of Q9M4L6_WHEAT. Lane M1: Protein Marker, GenScript, Cat. No. M00516, Lane M2: Protein Marker, GenScript, Cat. No. M00521, Lane 1: BSA ([…]), Lane 2: Q9M4L6_WHEAT (Reducing condition, […]), Lane 3: Q9M4L6_WHEAT (Non-reducing condition, 2.00 μg), Lane 4: Q9M4L6_WHEAT (Reducing condition), Lane 5: Q9M4L6_WHEAT (Non-reducing condition), Primary antibody: Mouse-anti-His mAb (GenScript, Cat. No. A00186). Panel B: SDS-PAGE and Western blot analysis of A0A0E3SZN6_TRIUA. […]\nRecombinant gliadins were in vitro chymotrypsin digested essentially as described (Molberg O, et al., Methods Mol Med. 2000; 41:105-24). […] MS spectra were analyzed by using the PEAKS studio software (Bioinformatics Solutions Inc.) searched against a custom databased made by the respective gliadin Uniprot accession codes."}, "[2]": {"system": "T cells in HLA-DQ2.5 typed PBMCs", "experiment": "Intracellular IFN-γ flow assay of peptide-stimulated PBMCs", "assay_type": "cell-based, human", "settings": "for expansion of IFN-γ positive cells in the CD3+/CD4− cell population / expansion of IFN-γ positive CD4 T cells, CeD donor: 20 μM peptide; for expansion of IFN-γ positive cells in the CD3+/CD4− cell population / expansion of IFN-γ positive CD4 T cells, CeD donor / presence of response in tested CeD PBMC material / responses in healthy controls: 48h; for expansion of IFN-γ positive cells in the CD3+/CD4− cell population: FIG. 14C; for peptide reactivity, CeD donor 595: no statistical difference; for expansion of IFN-γ positive CD4 T cells, CeD donor: CeD donor 595, average, FIG. 14B; for presence of response in tested CeD PBMC material: CeD donors 585, 595 and 600; for presence of response in tested CeD PBMC material / responses in healthy controls: 20 μM; for responses in healthy controls: two HCs (557 and 558), FIG. 15B", "source_text": "Intracellular IFNγ flow assessment of CD4 T cell peptide stimulatory capacity using PBMCs. Cryopreserved HLA-DQ2.5 typed PBMCs from confirmed healthy controls (HC) and CeD patients were purchased (HemaCare-Cellero) and used in autologous in vitro T cell peptide stimulation assays followed by intracellular IFNγ staining in flow. (A) PBMCs from CeD donor 595 were used to set intracellular IFNγ baseline detection gates on CD3/CD4 T cells using anti-IFNγ-PE. (B and C) Bar graph representing intracellular IFNγ detection in CD4+/IFNγ+(B) and CD4−/IFNγ+(C) gates as illustrated in A. PBMCs from CeD donor 595 and HC 575 were stimulated with 20 μM DQ2.5-glia 33-mer (N-[…]-C(SEQ ID NO:59)) and A0A0E3SZN6_p6E_long (N-[…]-C(SEQ ID NO:30)), for 48h followed by intracellular T cell IFNγ detection.\nIntracellular IFN-γ flow assessment of CD4 T cell peptide stimulatory capacity using PBMCs. Cryopreserved HLA-DQ2.5 typed PBMCs from confirmed healthy controls (HC) and CeD patients were purchased (HemaCare-Cellero) and used in autologous in vitro T cell peptide stimulation assays followed by intracellular IFN-γ staining in flow. Intracellular IFN-γ baseline detection gates on CD3/CD4 T cells using anti-IFN-γ-PE were set as in FIG. 14.\nPBMCs from CeD donors (585, 595 and 600) and HCs (557 and 558) were stimulated with 20 μM DQ2.5-glia 33-mer (N-[…]-C(SEQ ID NO:59)) and A0A0E3SZN6_p6E_long (N-[…]-C(SEQ ID NO:30)), for 48h followed by intracellular T cell IFN-γ detection (A and B). Values are presented as mean values and ±SEM.\nPeptide-stimulated PBMCs were assessed for intracellular IFN-γ following reagents and the standard protocol from BioLegend (https://www.biolegend.com/). Briefly, cryopreserved human HLA-DQ2.5^+ PBMCs (HemaCare-Cellero) where gently thawed and washed in ice-cold PBS before resuspended into RPMI1640 supplemented with 10% FCS (v/v) before volumes of 1 ml (about 2×10^7 cells) were aliquoted into a 24-well microtiter plate (NUNC). One set of wells received either 20 μM of peptide (either A0A0E3SZN6_p6E_long ([…] (SEQ ID NO:30)) or 33-mer ([…] ([…]))). […] The cells were grown at standard conditions at 37° C. for 36h before Brefaldin A (BioLegend) and Monensin (BioLegend) was added, and incubation continued for another 12 h. The cells were then assessed for intracellular IFN-γ by flow. Data was acquired on a BD Accuri C6 cytometer (BD Biosciences) and analyzed using FlowJo software V10 (Tree Star)."}, "[3]": {"system": "T cells in HLA-DQ2.5 typed PBMCs", "experiment": "Intracellular IFN-γ flow assay of peptide-stimulated PBMCs", "assay_type": "cell-based, human", "settings": "HC donor 557; 20 μM peptide; 48h; FIG. 14B"}, "[4]": {"system": "4.7C antibody", "experiment": "FACS of antibody binding to peptides pulsed onto DQ2.5+ Raji cells, 4.7C antibody", "assay_type": "cell-based", "settings": "50 μM peptide pulsed onto human DQ2.5+ Raji cells", "experimental": "(§1) Assessment of antibody binding to the A0A0E3SZN6_TRIUA epitope candidate. […] The indicated peptides (50 μM) were pulsed onto human DQ2.5*Raji cells and antibody binding was tested in FACS as described (B).\n(§2) Assessment of antibody binding to the physiological relevant forms of the A0A0E3SZN6_TRIUA epitope candidate. The T. urartuA0A0E3SZN6_TRIUA (A) and T. aestivum Q9M4L6_WHEAT (B) sequences were in silico digested with tryspin and chymotrypsin, and the relevant digested fragments shown underlined (A and B). […] The known P positions are indicated (C). The indicated peptides were pulsed (50 μM) onto human DQ2.5*Raji cells and antibody binding was tested in FACS as described (D).\n(§3) To identify putative gliadin-derived sequences different from, but with similarity to, the 30 DOQ.2.5-glia-α1a epitope (PFPQP{right arrow over (E)}LPY (SEQ ID NO:4)), the UniProtKB protein database was searched using the ScanProsite tool (https://prosite.expasyorg/scanprosite/). […] More specifically, we fixed the proline (P) in p1, the glutamine (Q) in p6, the tyrosine (Y) in p9, and P was disallowed in the position p10 after the p9 Y (underlined). To focus the output of the searches, we restricted the output to the Triticum taxonomic group. […] In some cases, Q residues were exchanged with glutamate (E) in the peptide synthesis in order to mimic positional deamidation."}, "[5]": {"system": "107 antibody", "experiment": "FACS of antibody binding to peptides pulsed onto DQ2.5+ Raji cells, 107 antibody", "assay_type": "cell-based", "settings": "50 μM peptide pulsed onto human DQ2.5+ Raji cells", "experimental": "as §1, §2, §3"}, "[6]": {"settings": "A0A0E3SZN6 peptide versus 33-mer, FIG. 15A"}},
  "data": [
    {"substance": "A0A0E3SZN6_TRIUA: omega-gliadin protein of Triticum urartu (SEQ ID NO:1), produced recombinantly in E. coli (QPQQPYP)", "values": [
      {"measurement": "processing of the 9-mer core by chymotrypsin proteolysis", "setting": "[1]", "result": "no destructive processing was observed of the postulated novel 9-mer core peptide"}
    ]},
    {"substance": "LQLQPFPQPELPYPQPELPYPQPELPYPQPQPF (SEQ ID NO:55) [33-mer, reference compound]", "values": [
      {"measurement": "expansion of IFN-γ positive cells in the CD3+/CD4− cell population", "setting": "[2]", "result": "not seen"},
      {"measurement": "peptide reactivity, CeD donor 585", "setting": "[2]; [6]", "result": "appeared to favor"},
      {"measurement": "peptide reactivity, CeD donor 595", "setting": "[2]; [6]", "result": "about equal on both"},
      {"measurement": "expansion of IFN-γ positive CD4 T cells, CeD donor", "setting": "[2]", "result": 4.2, "unit": "%"},
      {"measurement": "presence of response in tested CeD PBMC material", "setting": "[2]; FIG. 15A", "result": "2/3"},
      {"measurement": "responses in healthy controls", "setting": "[2]", "result": "no responses"},
      {"measurement": "expansion of IFN-γ positive CD4 T cells, healthy control", "setting": "[3]", "result": "no such expansion"}
    ]},
    {"substance": "PQPELPYPQPE (SEQ ID NO:57) [DQ2.5-glia-α2, reference compound]", "values": [
      {"measurement": "binding of 4.7C antibody to peptide-pulsed Raji cells (FACS)", "setting": "[4]", "result": "No binding"},
      {"measurement": "binding of 107 antibody to peptide-pulsed Raji cells (FACS)", "setting": "[5]", "result": "No binding"}
    ]},
    {"substance": "PQQPYPEQEQPYGT (SEQ ID NO:63) [EE]", "values": [
      {"measurement": "binding of 4.7C antibody to peptide-pulsed Raji cells (FACS)", "setting": "[4]", "result": "bind well"},
      {"measurement": "binding of 107 antibody to peptide-pulsed Raji cells (FACS)", "setting": "[5]", "result": "bind well"}
    ]},
    {"substance": "PQQPYPEQQQPYGT (SEQ ID NO:62) [form of the peptide with E at position 4 of the 9-mer]", "values": [
      {"measurement": "binding of 107 antibody to peptide-pulsed Raji cells (FACS)", "setting": "[5]", "result": "not"}
    ]},
    {"substance": "PQQPYPQQEQPYGT (SEQ ID NO:29)", "values": [
      {"measurement": "binding of 4.7C antibody to peptide-pulsed Raji cells (FACS)", "setting": "[4]", "result": "bind well"},
      {"measurement": "binding of 107 antibody to peptide-pulsed Raji cells (FACS)", "setting": "[5]", "result": "bind well"}
    ]},
    {"substance": "PQQPYPQQQQPYGT (SEQ ID NO:24)", "values": [
      {"measurement": "binding of 107 antibody to peptide-pulsed Raji cells (FACS)", "setting": "[5]", "result": "not"}
    ]},
    {"substance": "PYPQQEQPY (SEQ ID NO:25) [p6 deamidated 9-mer]", "values": [
      {"measurement": "binding of 4.7C antibody to peptide-pulsed Raji cells (FACS)", "setting": "[4]", "result": "no binding"},
      {"measurement": "binding of 107 antibody to peptide-pulsed Raji cells (FACS)", "setting": "[5]", "result": "no binding"}
    ]},
    {"substance": "QPQQPYPQQEQPYGTSL (SEQ ID NO:30) [A0A0E3SZN6 peptide]", "values": [
      {"measurement": "expansion of IFN-γ positive cells in the CD3+/CD4− cell population", "setting": "[2]", "result": "not seen"},
      {"measurement": "peptide reactivity, CeD donor 600", "setting": "[2]; [6]", "result": "appeared to favor"},
      {"measurement": "peptide reactivity, CeD donor 595", "setting": "[2]; [6]", "result": "about equal on both"},
      {"measurement": "expansion of IFN-γ positive CD4 T cells, CeD donor", "setting": "[2]", "result": 2.8, "unit": "%"},
      {"measurement": "presence of response in tested CeD PBMC material", "setting": "[2]; FIG. 15A", "result": "2/3"},
      {"measurement": "responses in healthy controls", "setting": "[2]", "result": "no responses"},
      {"measurement": "expansion of IFN-γ positive CD4 T cells, healthy control", "setting": "[3]", "result": "no such expansion"}
    ]}
  ]
}
